Laboratory results: the supplement of paper PMC4862054

Legend:
Details in all cases: 72 h
[1] = system: CAL-148
Description: (§1)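 Drug sensitivity and resistance testing (DSRT) of breast cancer cell lines in 384-well plates, 5 concentrations in 10-fold dilutions over a compound-specific 10,000-fold range. After 72 h, cytotoxicity was read by CellTox Green fluorescence and viability by CellTiter-Glo luminescence (multiplexed), normalised to DMSO and benzethonium chloride controls. EC50 is the inflection point of the fitted dose-response curve (bottom asymptote free, so it can be relative for partial curves) and is censored at the highest tested concentration. Rows with DSS 0 (no meaningful response) were excluded.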

[2] = system: MDA-MB-231
Description: as §1

[3] = system: CAL-51
Description: as §1

[4] = system: BT-549
Description: as §1

[5] = system: HCC1937
Description: as §1

[6] = system: BT-474
Description: as §1

[7] = system: MDA-MB-468
Description: as §1

[8] = system: CAL-148; remark: listed apart in the source
Procedure, shortened: (§2)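 Per-plate normalisation used 0.1 % DMSO and a positive kill control. Breast cancer cell lines (20 µl suspension) were seeded into 384-well plates containing compound at 5 concentrations in 10-fold steps across a compound-specific 10,000-fold range, incubated for 72 h, and read first for CellTox Green fluorescence (485/520 nm), then for CellTiter-Glo luminescence. EC50 was fitted from the dose-response curves and censored at the top concentration.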

[9] = system: MDA-MB-231; remark: listed apart in the source
Procedure, shortened: as §2

[10] = system: Hs578T
Procedure, shortened: as §2

[11] = system: CAL-51; remark: listed apart in the source
Procedure, shortened: as §2

[12] = system: BT-549; remark: listed apart in the source
Procedure, shortened: as §2

[13] = system: DU-4475
Procedure, shortened: as §2

[14] = system: HCC1937; remark: listed apart in the source
Procedure, shortened: as §2

[15] = system: HCC1143
Procedure, shortened: as §2

[16] = system: BT-474; remark: listed apart in the source
Procedure, shortened: as §2

[17] = system: MFM-223
Procedure, shortened: as §2

[18] = system: MDA-MB-436
Procedure, shortened: as §2

[19] = system: HDQ-P1
Procedure, shortened: as §2

[20] = system: Hs578T; remark: listed apart in the source
Description: as §1

[21] = system: MCF-10A
Description: as §1

[22] = system: MFM-223; remark: listed apart in the source
Description: as §1

[23] = system: CAL-85-1
Description: as §1

[24] = system: HDQ-P1; remark: listed apart in the source
Description: as §1

[25] = system: MCF-10A; remark: listed apart in the source
Procedure, shortened: as §2

[26] = system: HCC1599
Procedure, shortened: as §2

[27] = system: SK-BR-3
Procedure, shortened: as §2

[28] = system: MDA-MB-453
Procedure, shortened: as §2

[29] = system: CAL-85-1; remark: listed apart in the source
Procedure, shortened: as §2

[30] = system: MDA-MB-231; remark: listed apart in the source
Procedure, shortened: (§3)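 For viability, cells received 2.5 µl CellTiter-Blue for 2 h at 37 °C and fluorescence was read at 560/590 nm. Before this, breast cancer cell lines in 20 µl suspension had been incubated for 72 h on 384-well plates pre-loaded with compound dissolved in 5 µl medium. EC50 was obtained from a percent-inhibition dose-response fit censored at the highest concentration, after normalisation of each plate to vehicle and a positive kill control; rows with a zero drug sensitivity score were discarded.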

[31] = system: Hs578T; remark: listed apart in the source
Procedure, shortened: as §3

[32] = system: HCC1599; remark: listed apart in the source
Procedure, shortened: as §3

[33] = system: HCC1143; remark: listed apart in the source
Procedure, shortened: as §3

[34] = system: BT-474; remark: listed apart in the source
Procedure, shortened: as §3

[35] = system: MFM-223; remark: listed apart in the source
Procedure, shortened: as §3

[36] = system: MDA-MB-468; remark: listed apart in the source
Procedure, shortened: as §3

[37] = system: DU-4475; remark: listed apart in the source
Procedure, shortened: as §3

[38] = system: MDA-MB-453; remark: listed apart in the source
Procedure, shortened: as §3

[39] = system: CAL-85-1; remark: listed apart in the source
Procedure, shortened: as §3

[40] = system: HDQ-P1; remark: listed apart in the source
Procedure, shortened: as §3

[41] = system: HCC1143; remark: listed apart in the source
Description: as §1

| Structure (SMILES) | EC50, CellTox Green [2] [nM] | EC50, CellTox Green [3] [nM] | EC50, CellTox Green [4] [nM] | EC50, CellTox Green [6] [nM] | EC50, CellTox Green [7] [nM] | EC50, CellTiter-Glo [8] [nM] | EC50, CellTiter-Glo [9] [nM] | EC50, CellTiter-Glo [10] [nM] | EC50, CellTiter-Glo [11] [nM] | EC50, CellTiter-Glo [12] [nM] | EC50, CellTiter-Glo [13] [nM] | EC50, CellTiter-Glo [14] [nM] | EC50, CellTiter-Glo [15] [nM] | EC50, CellTiter-Glo [16] [nM] | EC50, CellTiter-Glo [17] [nM] | EC50, CellTiter-Glo [18] [nM] | EC50, CellTiter-Glo [19] [nM] | EC50, CellTiter-Blue viability [30] [nM] | EC50, CellTiter-Blue viability [33] [nM] | EC50, CellTiter-Blue viability [37] [nM] | further results |
| --- | --- | --- | --- | --- | --- | --- | --- | --- | --- | --- | --- | --- | --- | --- | --- | --- | --- | --- | --- | --- | --- |
| COc1cc(Nc2ncc3c(n2)-c2ccc(Cl)cc2C(c2c(F)cccc2OC)=NC3)ccc1C(=O)O [Alisertib] | 14.8 | 18.2 | 756 | 8370 | 15.5 | 659 | 990 | 77.9 | 76.4 | 177 | 24.6 | 1740 | 41.6 | 76.1 | 615 | 27 | 8410 |  |  |  | EC50, CellTox Green [1]: 156 nM; EC50, CellTox Green [5]: 7460 nM |
| CN1CC[C@H](c2c(O)cc(O)c3c(=O)cc(-c4ccccc4Cl)oc23)[C@H](O)C1 [Alvocidib] | 135 | 806 | 1010 | > 10000 |  | 243 | 242 | 376 | 167 | 294 | 282 | 357 | 359 | 183 | 335 | 143 | 183 | 190 | 127 | 141 | EC50, CellTox Green [20]: 1790 nM; EC50, CellTox Green [21]: 420 nM; EC50, CellTox Green [22]: 558 nM; EC50, CellTox Green [23]: 473 nM; EC50, CellTox Green [24]: 167 nM; EC50, CellTiter-Glo [25]: 368 nM; EC50, CellTiter-Glo [26]: 417 nM; EC50, CellTiter-Glo [27]: 218 nM; EC50, CellTiter-Glo [28]: 548 nM; EC50, CellTiter-Glo [29]: 372 nM; EC50, CellTiter-Blue viability [31]: 93.6 nM; EC50, CellTiter-Blue viability [32]: 165 nM; EC50, CellTiter-Blue viability [34]: 278 nM; EC50, CellTiter-Blue viability [35]: 174 nM; EC50, CellTiter-Blue viability [36]: 278 nM; EC50, CellTiter-Blue viability [38]: 165 nM; EC50, CellTiter-Blue viability [39]: 153 nM; EC50, CellTiter-Blue viability [40]: 163 nM |
| Nc1nc(Cl)nc2c1ncn2[C@H]1C[C@H](O)[C@@H](CO)O1 [Cladribine] | > 1000 |  |  |  | 2.5 |  |  |  |  | 125 |  |  |  |  |  |  |  | 9.12 | > 1000 | 879 |  |
| Cc1c2oc3c(C)ccc(C(=O)N[C@@H]4C(=O)N[C@H](C(C)C)C(=O)N5CCC[C@H]5C(=O)N(C)CC(=O)N(C)[C@@H](C(C)C)C(=O)O[C@@H]4C)c3nc-2c(C(=O)N[C@@H]2C(=O)N[C@H](C(C)C)C(=O)N3CCC[C@H]3C(=O)N(C)CC(=O)N(C)[C@@H](C(C)C)C(=O)O[C@@H]2C)c(N)c1=O [Dactinomycin] | 2.54 | 2.1 | 5.04 | 354 | 43.6 | 1.56 | 12.7 | 11.1 | 5.11 | 1.94 | 2.98 | 4.61 | 8.69 | 12 | 35.9 | 7.89 | 2.14 | 1.35 | 1.52 | 0.72 | EC50, CellTox Green [1]: 1.44 nM; EC50, CellTox Green [20]: 30.5 nM; EC50, CellTox Green [21]: 27 nM; EC50, CellTox Green [41]: 167 nM; EC50, CellTox Green [22]: 93.9 nM; EC50, CellTox Green [23]: 22.2 nM; EC50, CellTiter-Glo [25]: 8.54 nM; EC50, CellTiter-Glo [26]: 35.9 nM; EC50, CellTiter-Glo [27]: 14.1 nM; EC50, CellTiter-Glo [28]: 18.4 nM; EC50, CellTiter-Glo [29]: 9.71 nM; EC50, CellTiter-Blue viability [31]: 0.99 nM; EC50, CellTiter-Blue viability [32]: 8.18 nM; EC50, CellTiter-Blue viability [34]: 16.1 nM; EC50, CellTiter-Blue viability [35]: 14.8 nM; EC50, CellTiter-Blue viability [36]: 1.54 nM; EC50, CellTiter-Blue viability [38]: 1.9 nM; EC50, CellTiter-Blue viability [39]: 2.03 nM; EC50, CellTiter-Blue viability [40]: 1.67 nM |
